From US8399465B2, “Compounds with two fused bicyclic heteroaryl moieties as modulators of leukotriene A4 hydrolase” (Janssen Pharmaceutica NV, priority 2009, dated 2013)
Structures can show the parent of a compound that is named as a salt. Where two headings read alike, the source gives them in different places.

What was measured:
[1] = test system: airway hyperresponsiveness; details: multiple antigen challenges, primate model; cited from earlier work
[2] = biological target: T1, recombinant human LTA4 hydrolase (rhLTA4H) (Homo sapiens, UniProt P09960); assay: Recombinant human LTA4 hydrolase assay for LTA4 hydrolase inhibitor activity; assay type: biochemical; details: rhLTA4H, LTB4 by immunoassay; single determination or average of two or more; mark after value = form tested: ′ free base, ″ hydrochloride, ^ formate; read-out: IC50
T1 construct: made in house; host or cells: Spodoptera frugiperda (Sf-9) cells, baculovirus (pFastBac1)
T1 sequence (P09960 1-611): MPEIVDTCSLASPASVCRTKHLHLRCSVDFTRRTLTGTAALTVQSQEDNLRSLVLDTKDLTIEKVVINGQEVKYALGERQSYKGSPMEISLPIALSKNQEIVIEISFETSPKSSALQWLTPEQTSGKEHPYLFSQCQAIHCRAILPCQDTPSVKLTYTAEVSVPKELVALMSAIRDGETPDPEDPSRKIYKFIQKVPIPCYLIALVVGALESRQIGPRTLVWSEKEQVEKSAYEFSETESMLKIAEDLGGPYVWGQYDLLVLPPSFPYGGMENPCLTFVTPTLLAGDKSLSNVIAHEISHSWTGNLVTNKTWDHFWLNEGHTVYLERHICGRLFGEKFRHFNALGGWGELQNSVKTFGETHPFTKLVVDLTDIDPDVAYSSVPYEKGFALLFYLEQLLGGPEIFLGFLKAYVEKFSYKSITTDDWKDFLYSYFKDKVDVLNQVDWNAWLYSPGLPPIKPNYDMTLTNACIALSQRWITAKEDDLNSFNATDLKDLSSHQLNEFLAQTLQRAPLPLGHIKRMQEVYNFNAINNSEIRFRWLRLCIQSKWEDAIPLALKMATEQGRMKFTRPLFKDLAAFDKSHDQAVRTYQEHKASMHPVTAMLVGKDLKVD
Summary of the method: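 Baculovirus/Sf-9-expressed human LTA4H (10 ng) was preincubated 10 min at rt with compound in assay buffer (10% DMSO in compound dilution), then reacted 30 min at rt with LTA4 free acid made from its methyl ester. LTB4 produced was measured by ELISA after dilution; IC50 from non-linear regression, single or averaged determinations.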

[3] = test system: LTB4 production in murine blood (LTA4H); assay: LTB4 production by calcium ionophore-stimulated murine blood for LTA4H inhibitor activity; assay type: cell-based, CD-1 mice; details: Mus musculus; murine blood diluted 1 in 15, A23187 stimulated; single determination or average; mark after value = form tested: ′ free base, ″ hydrochloride, ^ formate; read-out: IC50
Summary of the method: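 Heparinized blood from CD-1 mice was preincubated with compound for 15 min at 37° C, then stimulated with calcium ionophore A23187 (final 7 μg/mL) for 30 min. Centrifugation stopped the reaction, and LTB4 in the supernatant was measured by enzyme immunoassay. Values are single determinations or means of two or more.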

[4] = test system: arachidonic acid-induced neutrophil influx in murine ear tissue; assay: Murine arachidonic acid-induced inflammation model: neutrophil influx (myeloperoxidase) in ear; assay type: in vivo, Balb/c mice; details: Mus musculus, read-out: % Inh. MPO
[5] = test system: ex vivo calcium ionophore-stimulated LTB4 production in whole blood; assay: Murine arachidonic acid-induced inflammation model: ex vivo stimulated LTB4 production in blood; parameters: species or system Balb/c mice; details: Mus musculus; 30 mg/kg oral gavage; blood diluted 1:1, A23187 stimulated ex vivo; percent inhibition of LTB4 production; read-out: % Inh. LTB4
[6] = test system: ionophore-induced LTB4 production; details: oral administration; cited from earlier work
[7] = test system: ionophore-induced LTB4 production; details: oral administration; cited from earlier work; remark: listed apart in the source
colitis symptoms = details: eight weeks of treatment; cited from earlier work
[8] = 30 mg/kg oral gavage, 60 min before topical arachidonic acid, ear biopsy after 3 h, percent inhibition of neutrophil influx

For `O=C(O)C1(c2ccc3c(c2)OC[C@H](Cc2ccc(-c4ccccc4)cc2)[C@H]3O)CCCC1` [CP-105,696], the airway hyperresponsiveness [1] is listed as “reduced”.

`CC(=O)N1C[C@@H]2C[C@H]1CN2CCc1coc2cc(Oc3nc4ncccc4s3)ccc12` [Example 258, (1S,4S)-1-(5-{2-[6-(Thiazolo[4,5-b]pyridin-2-yloxy)-benzofuran-3-yl]-ethyl}-2,5-diaza-bicyclo[2.2.1]hept-2-yl)-ethanone] showed an IC50 [2] of 22 nM, an IC50 [3] of 88 nM and an inhibition at 30 mg/kg [4, 8] of 72%. For the same compound, the inhibition at 30 mg/kg [5] was 70.9%.

With `OCC1CCN(Cc2coc3cc(Oc4nc5ncccc5s4)ccc23)CC1` [Example 269, {1-[6-(Thiazolo[4,5-b]pyridin-2-yloxy)-benzofuran-3-ylmethyl]-piperidin-4-yl}-methanol] the IC50 [2] was 4 nM, the IC50 [3] was 12 nM and the inhibition at 30 mg/kg [4, 8] was 92%. For the same compound, the inhibition at 30 mg/kg [5] was 74%.

In the case of `CC(=O)NC1CCN(Cc2coc3cc(Oc4nc5ncccc5s4)ccc23)C1` (stereo not drawn) [Example 307, N-{1-[6-(Thiazolo[4,5-b]pyridin-2-yloxy)-benzofuran-3-ylmethyl]-pyrrolidin-3-yl}-acetamide formate], the IC50 [2] is reported as 5 nM, the IC50 [3] is reported as 8 nM and the inhibition at 30 mg/kg ([4]; Neutrophil) is reported as 78%. The inhibition at 30 mg/kg [5] was 81%.

`CC(=O)N(C)C1CCN(Cc2coc3cc(Oc4nc5ncccc5s4)ccc23)C1` (stereo not drawn) [Example 309, N-Methyl-N-{1-[6-(thiazolo[4,5-b]pyridin-2-yloxy)-benzofuran-3-ylmethyl]-pyrrolidin-3-yl}-acetamide] gave an IC50 [2] of 5 nM, an IC50 [3] of 66 nM and an inhibition at 30 mg/kg [4, 8] of 81%. The inhibition at 30 mg/kg [5] was 70%.

In the case of `CC(=O)N1C[C@@H]2CC[C@H]1CN2Cc1cc2ncc(Oc3nc4ncccc4s3)cc2o1` [Example 339, (1S,4S)-1-{5-[6-(Thiazolo[4,5-b]pyridin-2-yloxy)-furo[3,2-b]pyridin-2-ylmethyl]-2,5-diaza-bicyclo[2.2.2]oct-2-yl}-ethanone formate], the IC50 [2] is reported as 12 nM, the IC50 [3] is reported as 70 nM and the inhibition at 30 mg/kg ([4]; Neutrophil) is reported as 50%. The inhibition at 30 mg/kg [5] was 50%.

`CC(=O)N1C[C@H]2C[C@@H]1CN2C(=O)c1cc2cc(Oc3nc4ncccc4s3)ccc2o1` [Example 366, (1R,4R)-1-{5-[5-(Thiazolo[4,5-b]pyridin-2-yloxy)-benzofuran-2-carbonyl]-2,5-diaza-bicyclo[2.2.1]hept-2-yl}-ethanone] gave an IC50 [2] of 20 nM, an IC50 [3] of 61 nM and an inhibition at 30 mg/kg [4, 8] of 50%. The inhibition at 30 mg/kg [5] was 78%.

In the case of `CC(=O)N[C@H]1C[C@H]2CC[C@@H](C1)N2C(=O)c1coc2cc(Oc3nc4ncccc4s3)ccc12` [Example 369, meso-endo-N-{8-[6-(Thiazolo[4,5-b]pyridin-2-yloxy)-benzofuran-3-carbonyl]-8-aza-bicyclo[3.2.1]oct-3-yl}-acetamide], the IC50 [2] is reported as 19 nM, the IC50 [3] is reported as 100 nM and the inhibition at 30 mg/kg [4, 8] is reported as 76%. It also gave an inhibition at 30 mg/kg [5] of 58%.

In the case of `O=C(c1coc2cc(Oc3nc4ncccc4s3)ccc12)N1CCC(N2CCCC2=O)CC1` [Example 370, 1-{1-[6-(Thiazolo[4,5-b]pyridin-2-yloxy)-benzofuran-3-carbonyl]-piperidin-4-yl}-pyrrolidin-2-one], the IC50 [2] is reported as 9 nM, the IC50 [3] is reported as 30 nM and the inhibition at 30 mg/kg ([4]; Neutrophil) is reported as 69%. For the same compound, the inhibition at 30 mg/kg [5] was 78%.

Work on `CC(=O)N1C[C@@H]2C[C@H]1CN2C(=O)c1coc2cc(Oc3nc4ncccc4s3)ccc12` [Example 371, (1S,4S)-1-{5-[6-(Thiazolo[4,5-b]pyridin-2-yloxy)-benzofuran-3-carbonyl]-2,5-diaza-bicyclo[2.2.1]hept-2-yl}-ethanone] yielded an IC50 [2] of 25 nM, an IC50 [3] of 84 nM and an inhibition at 30 mg/kg [4, 8] of 82%. It also gave an inhibition at 30 mg/kg [5] of 54%.

For `CC(=O)N1CCCN(C(=O)c2coc3cc(Oc4nc5ncccc5s4)ccc23)CC1` [Example 372, 1-{4-[6-(Thiazolo[4,5-b]pyridin-2-yloxy)-benzofuran-3-carbonyl]-[1,4]diazepan-1-yl}-ethanone], the IC50 [2] was 30 nM, the IC50 [3] was 47 nM and the inhibition at 30 mg/kg [4, 8] was 53%. For the same compound, the inhibition at 30 mg/kg [5] was 62%.

`NC(=O)N1CC2CCC(C1)N2C(=O)c1coc2cc(Oc3nc4ncccc4s3)ccc12` [Example 374, meso-8-[6-(Thiazolo[4,5-b]pyridin-2-yloxy)-benzofuran-3-carbonyl]-3,8-diaza-bicyclo[3.2.1]octane-3-carboxylic acid amide] gave an IC50 [2] of 11 nM, an IC50 [3] of 50 nM and an inhibition at 30 mg/kg [4, 8] of 37%. For the same compound, the inhibition at 30 mg/kg [5] was 7%.

For `CN(CCCOc1ccc(Cc2ccccc2)cc1)CCC(=O)O.Cl` [SC57461], the “ionophore-induced LTB4 production in mouse blood ex vivo” value [6] is listed as “caused inhibition”, the “ionophore-induced LTB4 production in rat peritoneum in vivo” value [7] is listed as “caused inhibition” and the colitis symptoms (colitis symptoms) is listed as “significantly improved”.
